{"source": "patent US6623933B1", "about": "(priority 1999, dated 2003)", "key": {"GluR3 AMPA receptor": {"biological_target": "T1, GluR3 AMPA receptor (Rattus norvegicus, UniProt P19492)", "T1 construct": "expressed in transfected cells; host or cells: Xenopus oocytes injected with GluR3 cRNA", "T1 sequence (P19492 23-888)": "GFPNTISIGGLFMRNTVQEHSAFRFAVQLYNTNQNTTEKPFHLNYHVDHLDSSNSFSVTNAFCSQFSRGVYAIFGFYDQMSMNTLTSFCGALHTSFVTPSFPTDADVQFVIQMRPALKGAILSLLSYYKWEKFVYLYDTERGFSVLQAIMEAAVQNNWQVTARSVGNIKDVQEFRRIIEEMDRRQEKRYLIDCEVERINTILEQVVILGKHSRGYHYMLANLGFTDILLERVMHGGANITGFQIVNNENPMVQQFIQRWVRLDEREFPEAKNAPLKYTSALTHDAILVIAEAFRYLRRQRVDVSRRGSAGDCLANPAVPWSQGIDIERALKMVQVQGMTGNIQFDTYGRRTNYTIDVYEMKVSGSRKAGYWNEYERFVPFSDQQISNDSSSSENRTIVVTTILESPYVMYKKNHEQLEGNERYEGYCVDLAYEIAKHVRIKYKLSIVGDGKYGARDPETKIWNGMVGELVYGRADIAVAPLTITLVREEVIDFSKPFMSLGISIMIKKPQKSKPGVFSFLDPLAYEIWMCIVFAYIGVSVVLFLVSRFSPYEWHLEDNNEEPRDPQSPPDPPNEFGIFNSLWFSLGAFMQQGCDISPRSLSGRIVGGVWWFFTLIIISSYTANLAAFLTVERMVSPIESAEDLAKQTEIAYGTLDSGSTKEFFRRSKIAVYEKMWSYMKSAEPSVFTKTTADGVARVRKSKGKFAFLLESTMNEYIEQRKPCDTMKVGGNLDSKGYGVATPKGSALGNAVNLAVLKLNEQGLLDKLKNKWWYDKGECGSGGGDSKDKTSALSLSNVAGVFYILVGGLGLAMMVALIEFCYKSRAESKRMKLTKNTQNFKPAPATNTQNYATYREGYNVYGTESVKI", "assay": "Kainate-induced currents, Xenopus oocytes injected with GluR3 cRNA", "assay_type": "cell-based", "text": "(§1) Plasmids were obtained from the following individuals: Dr. Suzanne Zukin (Albert Einstein College of Medicine, Bronx, N.Y.), NR1100; Dr. Shigetada Nakanishi (Kyoto University Faculty of Medicine, Kyoto, Japan), NR2A; Dr. Stephen Heinemann (Salk Institute, San Diego, Calif.), GluR1 (flop), GluR3 (flop), and GluR6. Plasmids were linearized with BamH1 (NR1100), XhoI (NR2A, GluR1, GluR3) or XbaI (GluR6) prior to in vitro transcription with T3 (GluR1, GluR3, GluR6) or T7 (NR1100, NR2A) RNA polymerase using the Message Machine kit (Ambion, Austin, Tex.). […] RNA solutions (50-70 nl) were injected into oocytes for delivery of NR1100 (5 ng), NR1100:NR2A (1:10 ng), GluR1 (5 ng). GluR3 (5 ng), or GluR6 (20 ng). Oocytes were incubated in ND96 at 18-20° C. for 3-7 days prior to electrophysiological recording.\n(§2) Steroid solutions were prepared as 70-100 mM frozen stocks in dimethyl sulfoxide (DMSO). The final DMSO concentration of all recording solutions was between 0.1% to 0.5% and was constant within an experiment.\n(§3) Perfusion control and data acquisition were carried out using an automated oocyte electrophysiology workstation that was developed for the rapid collection of concentration-response data and real-time waveform analysis (Yaghoubi et al., Soc. Neurosci. Abstr. 20: 1109 (1995)). This system is implemented on a Macintosh IIci computer (Apple Computer, Cupertino, Calif.) equipped with MacA-DIOS II data acquisition and control hardware (GW Instruments, Somerville, Mass.). Drug application is controlled by the computer through a series of valves, using custom-written software based on the SuperScope II development environment, improving the efficiency and reproducibility of data collection. Experiments were carried out using an Axoclamp-2A voltage clamp amplifier (Axon Instruments, Foster City, Calif.) in two-electrode voltage clamp mode. Intracellular microelectrodes (1-3 MΩ) were filled with 3 M KCl. […] Membrane potential was clamped at −60 to −70 mV and stepped to −100 mV at the start of data acquisition unless otherwise stated. […] Current and voltage recordings were digitized at 100 Hz for analysis. GluR6 injected oocytes were treated for 10 min with 10 μg/ml concanavalin A to prevent fast desensitization.\n(§4) Results are expressed as mean±S.E.M. Statistical comparisons were made using Student's t-test."}, "GluR6 kainate receptor": {"biological_target": "T2, GluR6 kainate receptor (Rattus norvegicus, UniProt P42260)", "T2 construct": "expressed in transfected cells; host or cells: Xenopus oocytes injected with GluR6 cRNA (concanavalin A treated)", "T2 sequence (P42260 32-908)": "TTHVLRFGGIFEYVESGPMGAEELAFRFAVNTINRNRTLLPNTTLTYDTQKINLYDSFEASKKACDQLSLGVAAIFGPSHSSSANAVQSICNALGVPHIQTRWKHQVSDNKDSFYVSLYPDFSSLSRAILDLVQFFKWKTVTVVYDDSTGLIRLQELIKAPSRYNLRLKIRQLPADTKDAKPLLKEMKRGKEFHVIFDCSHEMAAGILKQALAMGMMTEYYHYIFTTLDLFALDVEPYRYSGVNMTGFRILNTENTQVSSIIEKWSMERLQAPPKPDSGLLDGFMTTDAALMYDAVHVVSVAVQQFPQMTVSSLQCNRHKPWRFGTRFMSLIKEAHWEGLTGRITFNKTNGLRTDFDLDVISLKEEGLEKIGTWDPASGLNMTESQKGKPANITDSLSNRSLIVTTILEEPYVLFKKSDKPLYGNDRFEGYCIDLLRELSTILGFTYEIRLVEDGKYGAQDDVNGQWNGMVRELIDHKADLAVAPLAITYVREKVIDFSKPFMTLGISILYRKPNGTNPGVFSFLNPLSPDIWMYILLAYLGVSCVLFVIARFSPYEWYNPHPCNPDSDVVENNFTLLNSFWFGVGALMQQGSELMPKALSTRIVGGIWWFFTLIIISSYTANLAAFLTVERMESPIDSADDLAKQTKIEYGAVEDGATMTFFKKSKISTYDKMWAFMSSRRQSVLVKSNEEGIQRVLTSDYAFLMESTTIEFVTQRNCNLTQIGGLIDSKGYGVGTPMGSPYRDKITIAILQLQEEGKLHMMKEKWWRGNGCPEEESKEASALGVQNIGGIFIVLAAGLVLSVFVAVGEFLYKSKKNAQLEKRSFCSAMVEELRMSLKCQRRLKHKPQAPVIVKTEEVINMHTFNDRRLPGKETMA", "assay": "Kainate-induced currents, Xenopus oocytes injected with GluR6 cRNA", "assay_type": "cell-based", "text": "as §1, §2, §3, §4"}, "NR1100 NMDA receptor": {"biological_target": "T3, NR1100 NMDA receptor (Rattus norvegicus, UniProt P35439)", "T3 construct": "expressed in transfected cells; host or cells: Xenopus oocytes injected with NR1100 cRNA only", "assay": "NMDA-induced currents, Xenopus oocytes injected with NR1100 cRNA only, Example 1", "assay_type": "cell-based", "text": "as §1, §2, §3, §4"}, "NR1001/NR2A": {"biological_target": "NR1001/NR2A (Rattus norvegicus, UniProt P35439+Q00959)"}, "NR1100/NR2A": {"biological_target": "NR1100/NR2A (Rattus norvegicus, UniProt P35439+Q00959)"}, "NR1010/NR2A": {"biological_target": "NR1010/NR2A (Rattus norvegicus, UniProt P35439+Q00959)"}, "NR1/NR2A (NR1100)": {"biological_target": "NR1/NR2A (NR1100) (Rattus norvegicus, UniProt P35439+Q00959)", "sequence (Q00959 23-1464, other chains not shown)": "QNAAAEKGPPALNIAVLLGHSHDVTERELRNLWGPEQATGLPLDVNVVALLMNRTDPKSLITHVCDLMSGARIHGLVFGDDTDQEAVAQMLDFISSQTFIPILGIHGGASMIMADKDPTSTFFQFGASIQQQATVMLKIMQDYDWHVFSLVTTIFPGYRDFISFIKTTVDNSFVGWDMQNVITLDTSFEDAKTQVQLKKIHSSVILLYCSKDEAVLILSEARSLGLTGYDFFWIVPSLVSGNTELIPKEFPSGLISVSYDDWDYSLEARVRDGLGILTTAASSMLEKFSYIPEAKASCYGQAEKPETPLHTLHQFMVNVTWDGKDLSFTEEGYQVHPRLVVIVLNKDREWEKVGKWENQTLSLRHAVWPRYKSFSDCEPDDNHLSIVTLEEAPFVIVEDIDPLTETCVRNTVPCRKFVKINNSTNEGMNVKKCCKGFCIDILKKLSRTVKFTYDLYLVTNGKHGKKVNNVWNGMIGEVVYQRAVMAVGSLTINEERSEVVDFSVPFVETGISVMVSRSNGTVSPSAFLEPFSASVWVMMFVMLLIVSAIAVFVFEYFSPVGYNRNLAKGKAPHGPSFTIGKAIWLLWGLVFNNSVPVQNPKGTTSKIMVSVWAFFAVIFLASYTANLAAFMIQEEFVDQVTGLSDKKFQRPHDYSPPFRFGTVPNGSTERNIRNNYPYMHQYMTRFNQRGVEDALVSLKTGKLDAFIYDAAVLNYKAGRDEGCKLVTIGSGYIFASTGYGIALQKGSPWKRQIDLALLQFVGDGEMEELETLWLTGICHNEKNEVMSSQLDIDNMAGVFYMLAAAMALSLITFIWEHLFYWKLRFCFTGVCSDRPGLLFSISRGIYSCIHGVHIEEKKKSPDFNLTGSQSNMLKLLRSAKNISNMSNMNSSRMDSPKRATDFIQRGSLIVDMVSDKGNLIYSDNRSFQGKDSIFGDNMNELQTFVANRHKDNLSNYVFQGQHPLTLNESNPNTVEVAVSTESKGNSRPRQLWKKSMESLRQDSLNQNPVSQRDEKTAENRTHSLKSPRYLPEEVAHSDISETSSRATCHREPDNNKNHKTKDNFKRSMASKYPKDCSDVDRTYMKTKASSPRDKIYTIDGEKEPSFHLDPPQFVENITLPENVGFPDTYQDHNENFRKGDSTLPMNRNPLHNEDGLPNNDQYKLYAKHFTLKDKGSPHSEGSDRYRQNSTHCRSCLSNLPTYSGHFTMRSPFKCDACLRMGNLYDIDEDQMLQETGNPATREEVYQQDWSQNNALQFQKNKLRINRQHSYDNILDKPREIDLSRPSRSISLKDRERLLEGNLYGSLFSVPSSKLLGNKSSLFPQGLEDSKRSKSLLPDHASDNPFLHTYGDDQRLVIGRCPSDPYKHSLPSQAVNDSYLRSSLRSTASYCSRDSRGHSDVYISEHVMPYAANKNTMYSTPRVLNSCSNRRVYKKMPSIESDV"}, "NR1/NR2C (NR1100)": {"biological_target": "NR1/NR2C (NR1100) (Rattus norvegicus, UniProt P35439+Q00961)", "sequence (Q00961 20-1237, other chains not shown)": "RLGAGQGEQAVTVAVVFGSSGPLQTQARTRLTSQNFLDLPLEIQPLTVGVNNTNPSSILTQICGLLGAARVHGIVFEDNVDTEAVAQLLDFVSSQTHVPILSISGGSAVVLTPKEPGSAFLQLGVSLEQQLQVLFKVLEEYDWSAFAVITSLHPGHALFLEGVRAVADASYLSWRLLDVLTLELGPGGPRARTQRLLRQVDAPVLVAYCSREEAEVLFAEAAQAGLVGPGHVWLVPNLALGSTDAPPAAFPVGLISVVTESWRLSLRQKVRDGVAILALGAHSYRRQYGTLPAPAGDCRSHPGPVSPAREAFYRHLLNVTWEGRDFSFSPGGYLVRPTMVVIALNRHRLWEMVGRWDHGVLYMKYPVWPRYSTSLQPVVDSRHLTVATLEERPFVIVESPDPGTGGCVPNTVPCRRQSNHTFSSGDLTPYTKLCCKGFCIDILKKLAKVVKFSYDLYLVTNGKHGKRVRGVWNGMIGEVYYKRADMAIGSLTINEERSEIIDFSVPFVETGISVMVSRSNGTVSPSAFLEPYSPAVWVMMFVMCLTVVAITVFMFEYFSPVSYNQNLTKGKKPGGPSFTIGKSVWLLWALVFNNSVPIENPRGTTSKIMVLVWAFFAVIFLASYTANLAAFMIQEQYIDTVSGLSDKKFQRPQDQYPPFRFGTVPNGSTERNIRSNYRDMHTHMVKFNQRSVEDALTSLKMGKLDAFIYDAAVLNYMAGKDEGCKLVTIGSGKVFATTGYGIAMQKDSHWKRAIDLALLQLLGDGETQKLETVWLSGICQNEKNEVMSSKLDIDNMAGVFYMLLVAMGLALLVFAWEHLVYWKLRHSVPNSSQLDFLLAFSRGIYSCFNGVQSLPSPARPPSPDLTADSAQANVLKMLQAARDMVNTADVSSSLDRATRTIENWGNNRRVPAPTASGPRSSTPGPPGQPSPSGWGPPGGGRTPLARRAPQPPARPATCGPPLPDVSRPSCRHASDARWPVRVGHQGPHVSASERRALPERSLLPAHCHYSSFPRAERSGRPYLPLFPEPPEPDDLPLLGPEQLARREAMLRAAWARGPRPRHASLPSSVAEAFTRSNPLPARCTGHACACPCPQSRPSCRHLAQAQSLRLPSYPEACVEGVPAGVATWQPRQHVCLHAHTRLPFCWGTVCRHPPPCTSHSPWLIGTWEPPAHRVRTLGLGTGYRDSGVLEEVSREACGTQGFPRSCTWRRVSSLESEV"}, "NR1011/NR2A": {"biological_target": "NR1011/NR2A (Rattus norvegicus, UniProt P35439+Q00959)", "assay": "NMDA-induced currents of NR1 splice variants, Xenopus oocytes, Example 4", "assay_type": "cell-based", "parameters": "expressed in transfected cells; host or cells: Xenopus oocytes injected with NR1011 and NR2A mRNA", "conditions": "for maximum relative current (MRC) / percentage potentiation of the maximum NMDA response: NR1011/2A", "method": "Overnight cultures (500 ml) of transformed bacterial cells were prepared in order to grow sufficient quantities for maxiprep isolation of the plasmid CDNA. Maxipreps were done using a Sorvall RC-5B ultracentrifuge, Qiagen columns and cDNA was quantitated with spectrophotometry (OD260 and OD260/ OD280 ratio). The resulting plasmid cDNA was linearized by digestion with an appropriate restriction enzyme that cleaves distal to the cDNA insert (XhoI for NR2A or NotI for NR1100, NR1000, NR1111, NR1011, NR1101, NR1001). […] The samples were stored at −20° C. until use.\nIn vitro transcription was performed using the Ambion mMessage mMachine kit with T7 (NR1100, NR1000, NR1111, NR1011, NR1101, NR1001) RNA polymerase. The reaction was assembled on ice and allowed to incubate at 37° C. for 1-2 hr. The resulting mRNA was precipitated (reaction termination) using lithium chloride/5 mM EDTA solution and dissolved in RNase-free H2O. The concentration (OD260) and OD260/OD280 ratio (should be more than 1.5) was determined by spectrophotometer. The yield of mRNA was generally 15-30 μg. mRNA was stored at −80° C. until use.\nIntracellular recording microelectrodes were fabricated from 100 μl borosilicate glass disposable micropipettes using a 2-step protocol on a standard horizontal Flaming-Brown micropipette puller."}}, "note": "Counter-ions that a name gives are not always drawn. Like-named read-outs stand apart in the source and are kept apart here."}
{"compound": "CC(=O)[C@H]1CC[C@H]2[C@@H]3CC[C@@H]4C[C@H](OS(=O)(=O)O)CC[C@]4(C)[C@H]3CC[C@]12C", "note": "[3α5βS, 3α5β-pregnanolone sulfate]", "values": [{"measurement": "Percentage change in kainate response", "setting": "GluR3 AMPA receptor", "value": "−63 ± 8(4) %"}, {"measurement": "Percentage change in kainate response", "setting": "GluR6 kainate receptor", "value": "−34 ± 5(7) %"}, {"measurement": "EC50", "setting": "NR1100 NMDA receptor", "value": 57, "unit": "µM"}, {"measurement": "3α5βS Emax", "setting": "NR1001/NR2A; splice variant 001 /NR2A", "value": "−0.89 ± 0.05"}, {"measurement": "3α5βS nHill", "setting": "NR1001/NR2A; splice variant 001 /NR2A", "value": "0.95 ± 0.11"}, {"measurement": "maximum extent of inhibition by 3α5βS", "setting": "NR1100/NR2A; NR1100/NR2A", "value": "99±3", "unit": "%"}, {"measurement": "3α5βS Emax", "setting": "NR1100/NR2A; splice variant 100 /NR2A", "value": "−0.99 ± 0.03"}, {"measurement": "3α5βS nHill", "setting": "NR1100/NR2A; splice variant 100 /NR2A", "value": "0.83 ± 0.02"}, {"measurement": "3α5βS Emax", "setting": "NR1010/NR2A; splice variant 010 /NR2A", "value": "−0.85 ± 0.02"}, {"measurement": "3α5βS nHill", "setting": "NR1010/NR2A; splice variant 010 /NR2A", "value": "1.04 ± 0.06"}, {"measurement": "3α5βS nH", "setting": "NR1/NR2A (NR1100)", "value": "1.39 ± 0.07"}, {"measurement": "3α5βS nH", "setting": "NR1/NR2C (NR1100); NR1/NR2C", "value": "1.34 ± 0.04"}, {"measurement": "inhibition at 100 µM", "setting": "NR1011/NR2A; pH 7.5, read-out: percentage inhibition of the maximum NMDA response", "value": 56, "unit": "%"}]}
{"compound": "pregnenolone sulfate [PS]", "values": [{"measurement": "PS Emax, percentage change in kainate-induced current", "setting": "GluR3 AMPA receptor; GluR3, 100 μM kainate", "value": "−90", "unit": "%"}, {"measurement": "inhibition of kainate response", "setting": "GluR3 AMPA receptor; GluR3, 200 μM PS", "value": "81±3", "unit": "%"}, {"measurement": "reduction of kainate Imax", "setting": "GluR3 AMPA receptor; GluR3, PS 100 μM", "value": 71, "unit": "%"}, {"measurement": "inhibition of the response to kainate", "setting": "GluR3 AMPA receptor; GluR3, steroid 100 μM", "value": "over 70%"}, {"measurement": "Percentage change in kainate response", "setting": "GluR3 AMPA receptor; GluR3, steroid 100 μM, 100 μM kainate, −100 mV", "value": "−73 ± 3(8) %"}, {"measurement": "PS nH, inhibition of kainate-induced current", "setting": "GluR6 kainate receptor; GluR6, 10 μM kainate", "value": 0.29}, {"measurement": "inhibition of kainate response", "setting": "GluR6 kainate receptor; GluR6, 500 μM PS", "value": "64±2", "unit": "%"}, {"measurement": "reduction of kainate Imax", "setting": "GluR6 kainate receptor; GluR6, PS 100 μM", "value": 33, "unit": "%"}, {"measurement": "inhibition of the response to kainate", "setting": "GluR6 kainate receptor; GluR6, steroid 100 μM", "value": 42, "unit": "%"}, {"measurement": "Percentage change in kainate response", "setting": "GluR6 kainate receptor; GluR6, steroid 100 μM, 10 μM kainate, −100 mV", "value": "−42 ± 3(8) %"}, {"measurement": "maximum potentiation of NMDA induced current", "setting": "NR1100 NMDA receptor; NR1100 cRNA only", "value": 114, "unit": "%"}, {"measurement": "steroid Emax (NMDA-induced current relative to control)", "setting": "NR1100 NMDA receptor; NR1100 cRNA only, 300 μM NMDA", "value": 2.14}, {"measurement": "Maximum potentiation of NMDA-induced current by PS", "setting": "NR1001/NR2A; NR1001/NR2A", "value": "2.19±0.09", "unit": "fold"}, {"measurement": "PS Emax", "setting": "NR1001/NR2A; NR1001/NR2A", "value": "1.19 ± 0.09"}, {"measurement": "PS nHill", "setting": "NR1001/NR2A; NR1001/NR2A", "value": "1.14 ± 0.10"}, {"measurement": "Maximum potentiation of NMDA-induced current by PS", "setting": "NR1100/NR2A; NR1100/NR2A", "value": "1.67±0.07", "unit": "fold"}, {"measurement": "PS Emax", "setting": "NR1100/NR2A; NR1100/NR2A", "value": "0.67 ± 0.07"}, {"measurement": "PS nHill", "setting": "NR1100/NR2A; NR1100/NR2A", "value": "1.33 ± 0.08"}, {"measurement": "PS Emax", "setting": "NR1010/NR2A; NR1010/NR2A", "value": "1.03 ± 0.09"}, {"measurement": "PS nHill", "setting": "NR1010/NR2A; NR1010/NR2A", "value": "1.30 ± 0.18"}, {"measurement": "PS nH", "setting": "NR1/NR2A (NR1100)", "value": "1.33 ± 0.08"}, {"measurement": "PS Emax (% Change)", "setting": "NR1/NR2A (NR1100); 80 μM NMDA, 10 μM glycine", "value": "+167 ± 7%"}, {"measurement": "enhancement of NMDA plus glycine current", "setting": "NR1/NR2A (NR1100); 100 μM PS, 80 μM NMDA", "value": "62±8", "unit": "%"}, {"measurement": "fold less potent as inhibitor of NR1/NR2C and NR1/NR2D than in potentiating NR1/NR2A and NR1/NR2B", "setting": "NR1/NR2C (NR1100)", "value": "3.4- to 5.6 fold"}, {"measurement": "PS nH", "setting": "NR1/NR2C (NR1100); NR1/NR2C", "value": "1.32 ± 0.29"}, {"measurement": "inhibition of NMDA-induced current", "setting": "NR1/NR2C (NR1100); NR1/NR2C, 100 μM PS, […] μM NMDA", "value": "35±3", "unit": "%"}, {"measurement": "PS Emax (% Change)", "setting": "NR1/NR2C (NR1100); NR1/NR2C, […] μM NMDA, 10 μM glycine", "value": "−63 ± 9", "unit": "%"}, {"measurement": "maximum relative current (MRC)", "setting": "NR1011/NR2A; 100 μM PS, 200 μM NMDA+10 μM glycine, pH 7.5", "value": 1.41}, {"measurement": "maximum relative current (MRC)", "setting": "NR1011/NR2A; 100 μM PS, pH 6.5", "value": 2.24}, {"measurement": "percentage potentiation of the maximum NMDA response", "setting": "NR1011/NR2A; 100 μM PS, pH 7.5", "value": 50, "unit": "%"}, {"measurement": "maximum relative current (MRC)", "setting": "NR1011/NR2A; 100 μM PS, pH 8.5", "value": 1.35}, {"measurement": "percentage potentiation of the maximum NMDA response", "setting": "NR1011/NR2A; 100 μM PS, pH 8.5", "value": 24, "unit": "%"}, {"measurement": "difference in mrc between pH=6.5 and pH=7.5", "setting": "NR1011/NR2A; NR1011/NR2A, 100 μM PS", "value": 1.7, "unit": "fold"}]}
